Assay results published in the supplement of paper PMC10307832.

How the values were obtained:
Assay in all cases: relative viability (nuclei count vs DMSO), 5 days (fraction); higher = more cells survive
FH535 + Vorinostat = compound: CC1=C(C=CC(=C1)[N+](=O)[O-])NS(=O)(=O)C2=C(C=CC(=C2)Cl)Cl [FH535] + O=C(CCCCCCC(=O)Nc1ccccc1)NO [Vorinostat] (partner 1 µM)
Outline: (§1)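 One day after seeding in 1536-well plates, lung cancer cell lines were dosed by pin tool. Dosing was either single-drug or a fixed anchor-drug dose plus five library-drug doses (not always all listed) in √10 steps. After 5 days, nuclei were stained in one fix-and-stain step and counted on 4× images, and relative viability is the nuclei count of treated wells over that of vehicle wells, given as the median of duplicate plates.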

FH535 + OSI-027 = compound: CC1=C(C=CC(=C1)[N+](=O)[O-])NS(=O)(=O)C2=C(C=CC(=C2)Cl)Cl [FH535] + COc1cccc2cc(-c3nc([C@H]4CC[C@H](C(=O)O)CC4)n4ncnc(N)c34)[nH]c12 [OSI-027] (partner 0.5 µM)
Outline: as §1

FH535 + Trametinib = compound: CC1=C(C=CC(=C1)[N+](=O)[O-])NS(=O)(=O)C2=C(C=CC(=C2)Cl)Cl [FH535] + CC(=O)Nc1cccc(-n2c(=O)n(C3CC3)c(=O)c3c(Nc4ccc(I)cc4F)n(C)c(=O)c(C)c32)c1 [Trametinib] (partner 0.02 µM)
Outline: as §1

FH535 + AZD7762 = compound: CC1=C(C=CC(=C1)[N+](=O)[O-])NS(=O)(=O)C2=C(C=CC(=C2)Cl)Cl [FH535] + NC(=O)Nc1cc(-c2cccc(F)c2)sc1C(=O)N[C@H]1CCCNC1 [AZD7762] (partner 0.2 µM)
Outline: as §1

FH535 + Luminespib = compound: CC1=C(C=CC(=C1)[N+](=O)[O-])NS(=O)(=O)C2=C(C=CC(=C2)Cl)Cl [FH535] + CCNC(=O)c1noc(-c2cc(C(C)C)c(O)cc2O)c1-c1ccc(CN2CCOCC2)cc1 [Luminespib] (partner 0.01 µM)
Outline: as §1

Row | Cell Line | relative viability (FH535 + Vorinostat; first compound 0.04 µM) | relative viability (FH535 + Vorinostat; first compound 0.1265 µM) | relative viability (FH535 + Vorinostat; first compound 0.4 µM) | relative viability (FH535 + Vorinostat; first compound 1.265 µM) | relative viability (FH535 + OSI-027; first compound 0.04 µM) | relative viability (FH535 + OSI-027; first compound 0.1265 µM) | relative viability (FH535 + OSI-027; first compound 0.4 µM) | relative viability (FH535 + OSI-027; first compound 1.265 µM) | relative viability (FH535 + Trametinib; first compound 0.04 µM) | relative viability (FH535 + Trametinib; first compound 0.1265 µM) | relative viability (FH535 + Trametinib; first compound 0.4 µM) | relative viability (FH535 + Trametinib; first compound 1.265 µM) | relative viability (FH535 + AZD7762; first compound 0.04 µM) | relative viability (FH535 + AZD7762; first compound 0.1265 µM) | relative viability (FH535 + AZD7762; first compound 0.4 µM) | relative viability (FH535 + AZD7762; first compound 1.265 µM) | relative viability (FH535 + Luminespib; first compound 0.04 µM) | relative viability (FH535 + Luminespib; first compound 0.1265 µM) | relative viability (FH535 + Luminespib; first compound 0.4 µM) | relative viability (FH535 + Luminespib; first compound 1.265 µM)
1 | NCI-H2085 | 0.815 | 0.849 | 0.659 | 0.62 | 0.644 | 0.709 | 0.602 | 0.508 | 0.567 | 0.624 | 0.503 | 0.403 | 1.03 | 1.06 | 0.783 | 0.828 | 0.333 | 0.481 | 0.41 | 0.268
2 | NCI-H2087 | 0.566 | 0.782 | 0.693 | 0.551 | 0.522 | 0.454 | 0.478 | 0.421 | 0.243 | 0.152 | 0.182 | 0.157 | 1.24 | 1.21 | 1.17 | 0.78 | 0.178 | 0.141 | 0.147 | 0.191
3 | NCI-H2126 | 0.72 | 0.782 | 0.727 | 0.567 | 0.72 | 0.742 | 0.692 | 0.532 | 0.541 | 0.624 | 0.535 | 0.392 | 0.973 | 1.05 | 0.857 | 0.874 | 0.841 | 0.919 | 0.868 | 0.514
4 | NCI-H2170 | 0.713 | 0.816 | 0.768 | 0.69 | 0.72 | 0.779 | 0.619 | 0.554 | 0.964 | 0.883 | 0.752 | 0.706 | 0.897 | 1.06 | 0.809 | 0.815 | 0.726 | 0.606 | 0.661 | 0.426
5 | NCI-H2342 | 0.674 | 0.725 | 0.87 | 0.721 | 0.516 | 0.593 | 0.641 | 0.567 | 0.794 | 0.823 | 0.9 | 0.842 | 0.491 | 0.482 | 0.482 | 0.354 | 0.738 | 0.713 | 0.705 | 0.6
6 | NCI-H2347 | 0.753 | 0.681 | 0.608 | 0.52 | 0.405 | 0.486 | 0.306 | 0.37 | 0.276 | 0.318 | 0.3 | 0.291 | 0.696 | 0.819 | 0.764 | 0.761 | 0.617 | 0.333 | 0.39 | 0.752
7 | NCI-H2405 | 0.945 | 0.965 | 0.776 | 0.458 | 0.605 | 0.62 | 0.564 | 0.439 | 0.56 | 0.651 | 0.611 | 0.531 | 0.665 | 0.794 | 0.641 | 0.5 | 0.76 | 0.752 | 0.602 | 0.605
8 | NCI-H3122 | 0.901 | 1.1 | 0.979 | 0.966 | 0.919 | 1.06 | 0.885 | 0.751 | 0.188 | 0.274 | 0.2 | 0.22 | 1.03 | 0.98 | 0.984 | 0.933 | 0.0802 | 0.122 | 0.0923 | 0.0705
9 | PC-3 [JPC-3] | 0.757 | 0.769 | 0.687 | 0.529 | 0.828 | 0.704 | 0.624 | 0.592 | 0.726 | 0.829 | 0.691 | 0.607 | 0.773 | 0.83 | 0.656 | 0.508 | 0.794 | 0.76 | 0.546 | 0.399
10 | PC-14 | 0.741 | 0.607 | 0.782 | 0.797 | 0.83 | 0.9 | 0.896 | 0.783 | 0.652 | 0.815 | 0.895 | 0.693 | 0.357 | 0.416 | 0.245 | 0.349 | 0.126 | 0.168 | 0.152 | 0.117
11 | RERF-LC-KJ | 0.632 | 0.64 | 0.685 | 0.573 | 0.538 | 0.616 | 0.6 | 0.4 | 0.862 | 0.921 | 0.869 | 0.744 | 0.905 | 1.02 | 0.931 | 0.704 | 1.27 | 1.14 | 1.13 | 0.728
12 | SW 900 | 0.483 | 0.257 | 0.378 | 0.358 | 0.531 | 0.582 | 0.505 | 0.333 | 0.839 | 1.09 | 0.853 | 0.75 | 0.42 | 0.599 | 0.403 | 0.542 | 0.186 | 0.163 | 0.161 | 0.178
